From patent US10544143B2, “4-azaindole compounds” (BRISTOL-MYERS SQUIBB COMPANY, priority 2017, dated 2020)
pIC50: −log10 of the molar value. Read-outs that look alike come from different tables or passages of the source.

Key:
TLR7 = TLR7 (Mus musculus (Mouse), UniProt P58681); test: In vivo mouse TLR7 PD model (gardiquimod challenge, plasma IL-6 and IFN-alpha); conditions: C57BL/6 mice, plasma 90 min after gardiquimod i.p., vs vehicle
Experimental: In Vivo Mouse TLR7 PD Model:
Adult male C57BL/6 mice were used for the experiments. Mice (7 to 10 per group) were randomized into different treatment groups based on body weight. Mice from the respective treatment groups were administered orally with vehicle or test compound. Thirty min after the oral administration of vehicle or test compound, mice were challenged with intraperitoneal injection of gardiquimod for TLR7 PD model. Ninety minutes after gardiquimod injection, mice were bled under isoflurane anaesthesia and plasma IL-6 and IFN-alpha levels were estimated by using commercially available ELISA kit (BD Biosciences, PBL Life Sciences). At the end of experiment, mean cytokine data was plotted and one way ANOVA with Dunnett's test was performed to calculate the significance of test compound treated group vs. vehicle control group. Percent inhibition of cytokine induction was calculated for test compound treated group vs vehicle control group.

human TLR8 = human TLR8 (Homo sapiens (Human), UniProt Q9NR97); test: TLR8 inhibition reporter assay (HEK-Blue SEAP); conditions: read-out: TLR8 IC50;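 also: SEAP driven by IFN-β minimal promoter carrying NF-κB and AP-1 sites, compounds dosed 0.05 nM to 50 µM for 22 h, inhibition scaled between agonist-plus-DMSO and reference-inhibitor wells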
human TLR8, sequence (Q9NR97 27-1041): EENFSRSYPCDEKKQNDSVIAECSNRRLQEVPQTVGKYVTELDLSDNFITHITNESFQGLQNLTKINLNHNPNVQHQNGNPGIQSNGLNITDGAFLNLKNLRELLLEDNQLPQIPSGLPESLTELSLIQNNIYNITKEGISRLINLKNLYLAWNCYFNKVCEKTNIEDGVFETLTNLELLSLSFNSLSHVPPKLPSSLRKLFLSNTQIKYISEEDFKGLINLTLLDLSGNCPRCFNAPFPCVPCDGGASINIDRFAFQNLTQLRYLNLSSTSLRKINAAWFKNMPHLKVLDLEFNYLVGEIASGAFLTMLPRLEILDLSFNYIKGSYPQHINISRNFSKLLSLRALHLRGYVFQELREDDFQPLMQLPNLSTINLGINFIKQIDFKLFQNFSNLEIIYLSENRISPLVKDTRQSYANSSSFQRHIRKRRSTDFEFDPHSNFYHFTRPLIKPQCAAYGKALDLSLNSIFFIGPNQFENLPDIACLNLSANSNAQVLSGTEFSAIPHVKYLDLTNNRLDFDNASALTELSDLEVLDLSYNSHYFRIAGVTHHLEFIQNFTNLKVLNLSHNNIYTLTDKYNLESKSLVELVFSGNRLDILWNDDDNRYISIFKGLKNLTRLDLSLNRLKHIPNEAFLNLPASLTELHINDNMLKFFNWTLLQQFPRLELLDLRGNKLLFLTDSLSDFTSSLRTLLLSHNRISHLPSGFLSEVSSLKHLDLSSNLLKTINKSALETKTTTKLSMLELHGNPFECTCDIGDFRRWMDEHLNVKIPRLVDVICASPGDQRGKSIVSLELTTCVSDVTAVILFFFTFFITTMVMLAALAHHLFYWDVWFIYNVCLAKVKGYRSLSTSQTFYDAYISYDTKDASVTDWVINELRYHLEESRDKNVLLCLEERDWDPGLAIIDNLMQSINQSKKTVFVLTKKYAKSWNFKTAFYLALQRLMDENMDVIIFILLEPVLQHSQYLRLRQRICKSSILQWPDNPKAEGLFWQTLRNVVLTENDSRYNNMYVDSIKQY

human TLR7 = human TLR7 (Homo sapiens (Human), UniProt Q9NYK1); test: TLR7 inhibition reporter assay (HEK-Blue SEAP); assay type: cell-based; conditions: HEK-Blue cells overexpressing human TLR7, gardiquimod 7.5 μM stimulation, SEAP reporter
human TLR7, sequence (Q9NYK1 27-1049): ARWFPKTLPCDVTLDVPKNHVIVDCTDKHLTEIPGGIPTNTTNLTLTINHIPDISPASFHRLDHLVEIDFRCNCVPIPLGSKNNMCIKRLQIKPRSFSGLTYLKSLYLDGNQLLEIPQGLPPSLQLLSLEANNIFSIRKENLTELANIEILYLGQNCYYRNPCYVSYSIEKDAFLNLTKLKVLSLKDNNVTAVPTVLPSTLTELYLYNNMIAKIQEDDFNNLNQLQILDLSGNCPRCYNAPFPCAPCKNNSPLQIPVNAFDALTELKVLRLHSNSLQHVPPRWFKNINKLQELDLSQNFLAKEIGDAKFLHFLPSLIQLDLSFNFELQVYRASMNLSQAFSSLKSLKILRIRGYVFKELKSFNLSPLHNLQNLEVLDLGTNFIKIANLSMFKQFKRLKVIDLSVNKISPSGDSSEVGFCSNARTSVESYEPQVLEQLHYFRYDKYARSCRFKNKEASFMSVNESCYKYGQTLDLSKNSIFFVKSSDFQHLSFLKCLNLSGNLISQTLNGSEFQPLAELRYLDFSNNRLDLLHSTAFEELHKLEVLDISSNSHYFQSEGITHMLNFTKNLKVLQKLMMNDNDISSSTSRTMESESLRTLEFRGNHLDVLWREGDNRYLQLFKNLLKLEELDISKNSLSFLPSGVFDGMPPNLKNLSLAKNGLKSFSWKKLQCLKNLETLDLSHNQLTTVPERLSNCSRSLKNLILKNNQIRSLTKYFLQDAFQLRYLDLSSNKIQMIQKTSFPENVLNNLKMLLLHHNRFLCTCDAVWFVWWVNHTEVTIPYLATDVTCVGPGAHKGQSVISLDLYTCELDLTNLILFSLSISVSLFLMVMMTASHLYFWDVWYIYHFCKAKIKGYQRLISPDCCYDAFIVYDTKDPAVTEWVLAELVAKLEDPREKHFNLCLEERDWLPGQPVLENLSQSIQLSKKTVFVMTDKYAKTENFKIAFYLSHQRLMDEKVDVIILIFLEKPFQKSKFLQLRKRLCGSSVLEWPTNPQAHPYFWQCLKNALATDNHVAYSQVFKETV

human TLR9 = human TLR9 (Homo sapiens (Human), UniProt Q9NR96); test: TLR9 inhibition reporter assay (HEK-Blue SEAP); conditions: read-out: TLR9 IC50;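 also: SEAP driven by an IFN-β minimal promoter with NF-κB and AP-1 sites, read after 22 h, compounds dosed 0.05 nM–50 µM, inhibition scaled between agonist plus DMSO and reference-inhibitor wells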
human TLR9, sequence (Q9NR96 26-1032): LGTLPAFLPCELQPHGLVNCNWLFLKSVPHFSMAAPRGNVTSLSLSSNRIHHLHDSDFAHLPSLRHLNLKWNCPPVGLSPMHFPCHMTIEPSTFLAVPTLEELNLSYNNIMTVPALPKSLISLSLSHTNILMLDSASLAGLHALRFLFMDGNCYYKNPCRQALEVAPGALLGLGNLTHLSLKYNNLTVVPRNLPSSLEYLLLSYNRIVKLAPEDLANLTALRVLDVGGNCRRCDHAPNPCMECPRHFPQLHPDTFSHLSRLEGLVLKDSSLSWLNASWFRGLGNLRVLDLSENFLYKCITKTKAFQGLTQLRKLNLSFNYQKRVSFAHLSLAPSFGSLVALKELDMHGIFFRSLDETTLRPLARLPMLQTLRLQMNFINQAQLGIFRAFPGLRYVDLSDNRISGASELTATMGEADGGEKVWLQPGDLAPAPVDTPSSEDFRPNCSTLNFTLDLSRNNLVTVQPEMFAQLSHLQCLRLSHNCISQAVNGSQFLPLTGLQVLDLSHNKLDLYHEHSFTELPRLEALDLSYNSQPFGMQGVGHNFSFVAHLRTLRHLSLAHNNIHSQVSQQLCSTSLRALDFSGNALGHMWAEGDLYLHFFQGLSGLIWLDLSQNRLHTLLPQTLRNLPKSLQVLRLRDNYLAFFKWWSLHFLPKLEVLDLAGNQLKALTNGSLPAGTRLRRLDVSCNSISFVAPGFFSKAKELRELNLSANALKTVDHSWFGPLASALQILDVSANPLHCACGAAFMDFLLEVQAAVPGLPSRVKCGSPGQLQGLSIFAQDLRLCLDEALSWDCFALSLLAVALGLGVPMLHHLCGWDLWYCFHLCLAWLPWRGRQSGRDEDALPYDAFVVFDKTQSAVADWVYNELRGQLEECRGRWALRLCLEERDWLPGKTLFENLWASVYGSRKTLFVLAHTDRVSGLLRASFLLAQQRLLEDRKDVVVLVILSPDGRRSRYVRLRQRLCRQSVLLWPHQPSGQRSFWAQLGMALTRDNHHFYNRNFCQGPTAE

MRL/lpr mice = test: MRL/lpr model of SLE; assay type: in vivo, mouse; conditions: vs vehicle; for IL-10, percent reduction in disease severity / IL-12p40, percent reduction in disease severity: plasma
Experimental: Male MRL/lpr mice of 12-14 weeks age were screened and randomized based on the titres of anti-dsDNA antibodies and urinary NGAL (Neutrophil Gelatinase Associated Lipocalin). Mice were treated orally, once daily for 8 weeks with vehicle or test compound. The effect of test compound on disease severity was assessed by measuring end points including proteinuria, urinary-NGAL, urinary TIMP1, blood urea nitrogen (BUN), anti-dsDNA Ab, anti-smRNP Ab titer, and plasma levels of IL10 and IL12p40. At the end of experiment, all mice were euthanized by CO2 asphyxiation and kidney samples were subjected for histology. To calculate the significance of test compound treated group vs. vehicle control group, one way ANOVA with Dunnett's test was performed. Percent reduction in disease severity was calculated for each parameter, for test compound treated group vs vehicle control group.

[1] = HEK-Blue cells overexpressing human TLR8, R848 15.9 μM stimulation, SEAP reporter
[2] = HEK-Blue cells overexpressing human TLR9, ODN2006 5 nM stimulation, SEAP reporter
[3] = 0.1 mg/kg oral once daily 8 weeks
[4] = 0.3 mg/kg oral once daily 8 weeks
[5] = 1 mg/kg oral once daily 8 weeks
[6] = 3 mg/kg oral once daily 8 weeks
[7] = 10 mg/kg oral once daily 8 weeks

TLR7, sequence (P58681 27-1050): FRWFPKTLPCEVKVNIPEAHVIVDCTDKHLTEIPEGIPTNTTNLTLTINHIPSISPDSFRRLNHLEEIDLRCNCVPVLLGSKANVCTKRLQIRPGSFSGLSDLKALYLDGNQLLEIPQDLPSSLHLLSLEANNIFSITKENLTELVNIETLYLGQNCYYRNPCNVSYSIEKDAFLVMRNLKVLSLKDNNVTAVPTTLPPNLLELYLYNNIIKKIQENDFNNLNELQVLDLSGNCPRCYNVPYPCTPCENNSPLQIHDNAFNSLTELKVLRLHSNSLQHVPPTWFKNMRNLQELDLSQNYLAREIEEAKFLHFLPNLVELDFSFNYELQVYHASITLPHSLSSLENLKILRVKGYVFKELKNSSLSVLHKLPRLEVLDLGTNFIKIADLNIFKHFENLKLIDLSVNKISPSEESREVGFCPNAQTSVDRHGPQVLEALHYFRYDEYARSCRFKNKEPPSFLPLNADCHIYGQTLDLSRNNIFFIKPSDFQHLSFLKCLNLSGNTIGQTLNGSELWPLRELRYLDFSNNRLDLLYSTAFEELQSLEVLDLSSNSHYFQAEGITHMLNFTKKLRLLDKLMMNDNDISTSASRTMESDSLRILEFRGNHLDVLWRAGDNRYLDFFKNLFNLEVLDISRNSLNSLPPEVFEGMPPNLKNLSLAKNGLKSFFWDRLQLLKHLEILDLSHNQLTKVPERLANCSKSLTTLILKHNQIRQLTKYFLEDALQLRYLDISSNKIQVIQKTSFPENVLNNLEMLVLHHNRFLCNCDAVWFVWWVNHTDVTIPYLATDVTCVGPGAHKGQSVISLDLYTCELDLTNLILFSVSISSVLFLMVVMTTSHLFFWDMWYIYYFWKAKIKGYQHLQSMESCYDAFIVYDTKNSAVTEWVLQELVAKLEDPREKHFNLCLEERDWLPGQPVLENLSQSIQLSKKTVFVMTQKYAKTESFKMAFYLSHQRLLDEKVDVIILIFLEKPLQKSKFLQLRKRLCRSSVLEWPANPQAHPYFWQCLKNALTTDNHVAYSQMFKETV

## Cc1c(-c2[nH]c3ccc(C4CCC(NCC5(S(C)(=O)=O)CC5)CC4)nc3c2C(C)C)cn2ncnc2c1C (stereo not shown) [Example 4, 4-(2-(7,8-dimethyl-[1,2,4]triazolo[1,5-a]pyridin-6-yl)-3-isopropyl-1H-pyrrolo[3,2-b]pyridin-5-yl)-N-((1-(methylsulfonyl)cyclopropyl)methyl)cyclohexan-1-amine]
TLR7; 0.0015 mg/kg oral
  % inhibition of IFN-alpha: 0%
  % inhibition of IL6: 0%
TLR7; 0.003 mg/kg oral
  % inhibition of IFN-alpha: 33%
  % inhibition of IL6: 23%
TLR7; 0.015 mg/kg oral
  % inhibition of IFN-alpha: 74%
  % inhibition of IL6: 75%
TLR7; 0.075 mg/kg oral
  % inhibition of IFN-alpha: 93%
  % inhibition of IL6: 76%
TLR7; 0.15 mg/kg oral
  % inhibition of IFN-alpha: 99%
  % inhibition of IL6: 95%
Human TLR8; [1]
  pIC50: 9.15
Human TLR7
  pIC50: 9.22
Human TLR9; [2]
  pIC50: 5.97

## Cc1c(-c2[nH]c3ccc(C4CCC(N5CC6(C5)CS(=O)(=O)C6)CC4)nc3c2C(C)C)cn2ncnc2c1C (stereo not shown) [Example 438, 6-((1r,4r)-(4-(2-(7,8-dimethyl-[1,2,4]triazolo[1,5-a]pyridin-6-yl)-3-isopropyl-1H-pyrrolo[3,2-b]pyridin-5-yl)cyclohexyl)-2-thia-6-azaspiro[3.3]heptane 2,2-dioxide]
TLR7; 0.003 mg/kg oral
  % inhibition of IFN-alpha: 36%
  % inhibition of IL6: 25%
TLR7; 0.006 mg/kg oral
  % inhibition of IFN-alpha: 57%
  % inhibition of IL6: 41%
TLR7; 0.03 mg/kg oral
  % inhibition of IFN-alpha: 67%
  % inhibition of IL6: 56%
TLR7; 0.15 mg/kg oral
  % inhibition of IFN-alpha: 96%
  % inhibition of IL6: 78%
TLR7; 0.3 mg/kg oral
  % inhibition of IFN-alpha: 98%
  % inhibition of IL6: 82%
Human TLR8; HEK-Blue cells overexpressing human TLR8, SEAP reporter, R848 15.9 μM
  pIC50: 9.41
Human TLR9; HEK-Blue cells overexpressing human TLR9, SEAP reporter, ODN2006 5 nM
  pIC50: 5.84
MRL/lpr mice; [3]
  IL-10, percent reduction in disease severity: 0%
  IL-12p40, percent reduction in disease severity: 16%
  Anti-SmRNP Ab titer, percent reduction in disease severity: 23%
  Anti-dsDNA Ab titer, percent reduction in disease severity: 0%
  Proteinuria, percent reduction in disease severity: 31%
  Urinary NGAL, percent reduction in disease severity: 34%
  Urinary TIMP1, percent reduction in disease severity: 0%
MRL/lpr mice; [4]
  IL-10, percent reduction in disease severity: 18%
  IL-12p40, percent reduction in disease severity: 33%
  Anti-SmRNP Ab titer, percent reduction in disease severity: 44%
  Anti-dsDNA Ab titer, percent reduction in disease severity: 28%
  Proteinuria, percent reduction in disease severity: 80%
  Urinary NGAL, percent reduction in disease severity: 58%
  Urinary TIMP1, percent reduction in disease severity: 42%
MRL/lpr mice; [5]
  IL-10, percent reduction in disease severity: 19%
  IL-12p40, percent reduction in disease severity: 26%
  Anti-SmRNP Ab titer, percent reduction in disease severity: 49%
  Anti-dsDNA Ab titer, percent reduction in disease severity: 39%
  Proteinuria, percent reduction in disease severity: 73%
  Urinary NGAL, percent reduction in disease severity: 63%
  Urinary TIMP1, percent reduction in disease severity: 54%
MRL/lpr mice; [6]
  IL-10, percent reduction in disease severity: 21%
  IL-12p40, percent reduction in disease severity: 28%
  Anti-SmRNP Ab titer, percent reduction in disease severity: 43%
  Anti-dsDNA Ab titer, percent reduction in disease severity: 44%
  Proteinuria, percent reduction in disease severity: 82%
  Urinary NGAL, percent reduction in disease severity: 67%
  Urinary TIMP1, percent reduction in disease severity: 56%
MRL/lpr mice; [7]
  IL-10, percent reduction in disease severity: 22%
  IL-12p40, percent reduction in disease severity: 41%
  Anti-SmRNP Ab titer, percent reduction in disease severity: 51%
  Anti-dsDNA Ab titer, percent reduction in disease severity: 37%
  Proteinuria, percent reduction in disease severity: 84%
  Urinary NGAL, percent reduction in disease severity: 67%
  Urinary TIMP1, percent reduction in disease severity: 79%

## Cc1c(-c2[nH]c3ccc(N4CCN(C(=O)CN(C)C)CC4)nc3c2C(C)C)cn2ncnc2c1C [Example 3, 1-(4-(2-(7,8-dimethyl-[1,2,4]triazolo[1,5-a]pyridin-6-yl)-3-isopropyl-1H-pyrrolo[3,2-b]pyridin-5-yl)piperazin-1-yl)-2-(dimethylamino)ethan-1-one]
TLR7; 0.005 mg/kg oral
  % inhibition of IFN-alpha: 29%
  % inhibition of IL6: 0%
TLR7; 0.01 mg/kg oral
  % inhibition of IFN-alpha: 37%
  % inhibition of IL6: 24%
TLR7; 0.05 mg/kg oral
  % inhibition of IFN-alpha: 94%
  % inhibition of IL6: 75%
TLR7; 0.25 mg/kg oral
  % inhibition of IFN-alpha: 99%
  % inhibition of IL6: 90%
TLR7; 0.5 mg/kg oral
  % inhibition of IFN-alpha: 100%
  % inhibition of IL6: 91%
Human TLR8; [1]
  pIC50: 8.96
Human TLR7
  pIC50: 9.03
Human TLR9; [2]
  pIC50: 5.07
